Legend:
Settings in all cases: Compound concentration 10 µM
[1] = molecular target: Histamine H1 receptor (Homo sapiens) (UniProt P35367)
Description: PDSP Primary Binding target: HRH1 - Compounds are tested at 10 uM concentration, plate are incubated at room temperature in the dark for 90 minutes. Reaction are stopped by vacuum filtration onto 0.3% polyethyleneimine soaked filter mats using Filtermate harvester. Scintilation cocktail is then melted onto microwave-dried filters on a hot plate and the radio activity is counted in Microbia counter.

[2] = molecular target: 5-hydroxytryptamine receptor 1E (Homo sapiens) (UniProt P28566)
Description: PDSP Primary Binding target: HTR1E - Compounds are tested at 10 uM concentration, plate are incubated at room temperature in the dark for 90 minutes. Reaction are stopped by vacuum filtration onto 0.3% polyethyleneimine soaked filter mats using Filtermate harvester. Scintilation cocktail is then melted onto microwave-dried filters on a hot plate and the radio activity is counted in Microbia counter.

[3] = molecular target: T1, Muscarinic acetylcholine receptor M5 (Homo sapiens) (UniProt P08912)
T1 sequence (whole entry): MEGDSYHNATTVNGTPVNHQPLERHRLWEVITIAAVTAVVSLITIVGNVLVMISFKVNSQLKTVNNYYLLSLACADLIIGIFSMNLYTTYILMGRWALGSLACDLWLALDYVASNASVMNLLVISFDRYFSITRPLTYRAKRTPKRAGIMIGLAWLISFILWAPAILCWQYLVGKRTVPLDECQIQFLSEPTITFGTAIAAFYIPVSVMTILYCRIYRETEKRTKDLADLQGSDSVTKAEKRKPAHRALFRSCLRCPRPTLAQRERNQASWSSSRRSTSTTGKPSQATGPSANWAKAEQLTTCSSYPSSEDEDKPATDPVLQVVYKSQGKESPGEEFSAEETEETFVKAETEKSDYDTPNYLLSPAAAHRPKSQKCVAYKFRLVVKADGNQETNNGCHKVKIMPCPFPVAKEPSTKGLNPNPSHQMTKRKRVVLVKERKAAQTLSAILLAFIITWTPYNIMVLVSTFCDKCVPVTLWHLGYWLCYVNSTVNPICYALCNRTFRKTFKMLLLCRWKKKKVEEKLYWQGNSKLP
Description: PDSP Primary Binding target: CHRM5 - Compounds are tested at 10 uM concentration, plate are incubated at room temperature in the dark for 90 minutes. Reaction are stopped by vacuum filtration onto 0.3% polyethyleneimine soaked filter mats using Filtermate harvester. Scintilation cocktail is then melted onto microwave-dried filters on a hot plate and the radio activity is counted in Microbia counter.

[4] = molecular target: T2, D(4) dopamine receptor (Homo sapiens) (UniProt P21917)
T2 sequence (whole entry): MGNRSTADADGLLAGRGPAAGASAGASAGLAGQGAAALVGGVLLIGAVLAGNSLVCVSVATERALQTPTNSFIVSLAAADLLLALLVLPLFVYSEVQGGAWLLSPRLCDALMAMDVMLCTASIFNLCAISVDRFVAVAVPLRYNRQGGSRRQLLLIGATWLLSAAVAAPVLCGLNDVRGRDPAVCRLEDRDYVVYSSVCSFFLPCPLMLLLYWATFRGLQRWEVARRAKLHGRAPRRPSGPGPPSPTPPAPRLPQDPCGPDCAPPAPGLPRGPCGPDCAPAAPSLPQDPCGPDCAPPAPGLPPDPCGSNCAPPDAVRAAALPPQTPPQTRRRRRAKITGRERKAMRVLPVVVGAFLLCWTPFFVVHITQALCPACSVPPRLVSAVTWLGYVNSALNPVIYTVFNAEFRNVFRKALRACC
Description: PDSP Primary Binding target: DRD4 - Compounds are tested at 10 uM concentration, plate are incubated at room temperature in the dark for 90 minutes. Reaction are stopped by vacuum filtration onto 0.3% polyethyleneimine soaked filter mats using Filtermate harvester. Scintilation cocktail is then melted onto microwave-dried filters on a hot plate and the radio activity is counted in Microbia counter.

[5] = molecular target: Translocator protein (Homo sapiens) (UniProt P30536)
Description: PDSP Primary Binding target: TSPO - Compounds are tested at 10 uM concentration, plate are incubated at room temperature in the dark for 90 minutes. Reaction are stopped by vacuum filtration onto 0.3% polyethyleneimine soaked filter mats using Filtermate harvester. Scintilation cocktail is then melted onto microwave-dried filters on a hot plate and the radio activity is counted in Microbia counter.

[6] = molecular target: 5-hydroxytryptamine receptor 1B (Homo sapiens) (UniProt P28222)
Description: PDSP Primary Binding target: HTR1B - Compounds are tested at 10 uM concentration, plate are incubated at room temperature in the dark for 90 minutes. Reaction are stopped by vacuum filtration onto 0.3% polyethyleneimine soaked filter mats using Filtermate harvester. Scintilation cocktail is then melted onto microwave-dried filters on a hot plate and the radio activity is counted in Microbia counter.

[7] = molecular target: Muscarinic acetylcholine receptor M3 (Homo sapiens) (UniProt P20309)
Description: PDSP Primary Binding target: CHRM3 - Compounds are tested at 10 uM concentration, plate are incubated at room temperature in the dark for 90 minutes. Reaction are stopped by vacuum filtration onto 0.3% polyethyleneimine soaked filter mats using Filtermate harvester. Scintilation cocktail is then melted onto microwave-dried filters on a hot plate and the radio activity is counted in Microbia counter.

[8] = molecular target: T3, Alpha-1D adrenergic receptor (Homo sapiens) (UniProt P25100)
T3 sequence (whole entry): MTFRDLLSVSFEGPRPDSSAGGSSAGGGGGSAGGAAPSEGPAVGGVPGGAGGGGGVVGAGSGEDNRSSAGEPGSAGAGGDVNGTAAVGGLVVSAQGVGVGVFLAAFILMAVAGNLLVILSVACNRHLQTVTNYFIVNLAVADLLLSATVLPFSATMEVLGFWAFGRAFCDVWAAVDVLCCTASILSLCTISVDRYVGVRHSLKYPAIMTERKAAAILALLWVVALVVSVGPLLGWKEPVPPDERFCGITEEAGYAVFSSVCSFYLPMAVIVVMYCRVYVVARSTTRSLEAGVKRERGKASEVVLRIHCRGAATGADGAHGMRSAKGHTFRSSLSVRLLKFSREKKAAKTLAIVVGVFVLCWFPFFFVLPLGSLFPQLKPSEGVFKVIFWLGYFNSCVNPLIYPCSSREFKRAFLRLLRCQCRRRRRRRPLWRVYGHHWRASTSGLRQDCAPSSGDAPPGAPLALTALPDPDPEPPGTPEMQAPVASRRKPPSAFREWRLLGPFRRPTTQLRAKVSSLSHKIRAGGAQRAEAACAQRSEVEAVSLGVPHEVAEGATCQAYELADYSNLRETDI
Description: PDSP Primary Binding target: ADRA1D - Compounds are tested at 10 uM concentration, plate are incubated at room temperature in the dark for 90 minutes. Reaction are stopped by vacuum filtration onto 0.3% polyethyleneimine soaked filter mats using Filtermate harvester. Scintilation cocktail is then melted onto microwave-dried filters on a hot plate and the radio activity is counted in Microbia counter.

[9] = molecular target: T4, Alpha-1A adrenergic receptor (Homo sapiens) (UniProt P35348)
T4 sequence (whole entry): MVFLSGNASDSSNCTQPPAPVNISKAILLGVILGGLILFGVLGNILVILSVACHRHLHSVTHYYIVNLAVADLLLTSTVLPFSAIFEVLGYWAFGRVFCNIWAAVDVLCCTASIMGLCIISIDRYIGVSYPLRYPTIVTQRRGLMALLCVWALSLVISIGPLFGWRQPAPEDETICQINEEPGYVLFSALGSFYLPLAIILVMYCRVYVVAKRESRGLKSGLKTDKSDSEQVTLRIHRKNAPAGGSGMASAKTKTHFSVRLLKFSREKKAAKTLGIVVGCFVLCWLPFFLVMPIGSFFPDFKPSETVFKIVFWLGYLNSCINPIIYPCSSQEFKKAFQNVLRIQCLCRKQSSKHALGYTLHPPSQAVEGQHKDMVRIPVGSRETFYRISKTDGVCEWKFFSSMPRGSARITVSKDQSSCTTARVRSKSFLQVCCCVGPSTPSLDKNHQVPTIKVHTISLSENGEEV
Description: PDSP Primary Binding target: ADRA1A - Compounds are tested at 10 uM concentration, plate are incubated at room temperature in the dark for 90 minutes. Reaction are stopped by vacuum filtration onto 0.3% polyethyleneimine soaked filter mats using Filtermate harvester. Scintilation cocktail is then melted onto microwave-dried filters on a hot plate and the radio activity is counted in Microbia counter.

[10] = molecular target: T5, Alpha-2A adrenergic receptor (Homo sapiens) (UniProt P08913)
T5 sequence (whole entry): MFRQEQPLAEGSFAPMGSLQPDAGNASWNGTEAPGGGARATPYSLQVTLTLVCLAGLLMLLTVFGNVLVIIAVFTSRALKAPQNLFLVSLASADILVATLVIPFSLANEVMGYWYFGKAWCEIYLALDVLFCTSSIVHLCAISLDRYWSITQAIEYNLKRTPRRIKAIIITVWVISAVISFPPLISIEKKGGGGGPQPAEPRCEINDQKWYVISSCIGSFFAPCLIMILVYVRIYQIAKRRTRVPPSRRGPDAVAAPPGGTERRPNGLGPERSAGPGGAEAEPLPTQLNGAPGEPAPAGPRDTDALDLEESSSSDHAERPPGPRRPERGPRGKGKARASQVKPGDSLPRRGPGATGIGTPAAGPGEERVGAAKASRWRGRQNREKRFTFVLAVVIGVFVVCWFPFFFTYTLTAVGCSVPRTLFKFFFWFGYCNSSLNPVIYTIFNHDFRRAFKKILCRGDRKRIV
Description: PDSP Primary Binding target: ADRA2A - Compounds are tested at 10 uM concentration, plate are incubated at room temperature in the dark for 90 minutes. Reaction are stopped by vacuum filtration onto 0.3% polyethyleneimine soaked filter mats using Filtermate harvester. Scintilation cocktail is then melted onto microwave-dried filters on a hot plate and the radio activity is counted in Microbia counter.

[11] = molecular target: D(2) dopamine receptor (Homo sapiens) (UniProt P14416)
Description: PDSP Primary Binding target: DRD2 - Compounds are tested at 10 uM concentration, plate are incubated at room temperature in the dark for 90 minutes. Reaction are stopped by vacuum filtration onto 0.3% polyethyleneimine soaked filter mats using Filtermate harvester. Scintilation cocktail is then melted onto microwave-dried filters on a hot plate and the radio activity is counted in Microbia counter.

[12] = molecular target: Sodium-dependent serotonin transporter (Homo sapiens) (UniProt P31645)
Description: PDSP Primary Binding target: SLC6A4 - Compounds are tested at 10 uM concentration, plate are incubated at room temperature in the dark for 90 minutes. Reaction are stopped by vacuum filtration onto 0.3% polyethyleneimine soaked filter mats using Filtermate harvester. Scintilation cocktail is then melted onto microwave-dried filters on a hot plate and the radio activity is counted in Microbia counter.

[13] = molecular target: Histamine H3 receptor (Homo sapiens) (UniProt Q9Y5N1)
Description: PDSP Primary Binding target: HRH3 - Compounds are tested at 10 uM concentration, plate are incubated at room temperature in the dark for 90 minutes. Reaction are stopped by vacuum filtration onto 0.3% polyethyleneimine soaked filter mats using Filtermate harvester. Scintilation cocktail is then melted onto microwave-dried filters on a hot plate and the radio activity is counted in Microbia counter.

Measured: inhibition

Chain of Histamine H3 receptor (Homo sapiens) (Q9Y5N1 whole entry): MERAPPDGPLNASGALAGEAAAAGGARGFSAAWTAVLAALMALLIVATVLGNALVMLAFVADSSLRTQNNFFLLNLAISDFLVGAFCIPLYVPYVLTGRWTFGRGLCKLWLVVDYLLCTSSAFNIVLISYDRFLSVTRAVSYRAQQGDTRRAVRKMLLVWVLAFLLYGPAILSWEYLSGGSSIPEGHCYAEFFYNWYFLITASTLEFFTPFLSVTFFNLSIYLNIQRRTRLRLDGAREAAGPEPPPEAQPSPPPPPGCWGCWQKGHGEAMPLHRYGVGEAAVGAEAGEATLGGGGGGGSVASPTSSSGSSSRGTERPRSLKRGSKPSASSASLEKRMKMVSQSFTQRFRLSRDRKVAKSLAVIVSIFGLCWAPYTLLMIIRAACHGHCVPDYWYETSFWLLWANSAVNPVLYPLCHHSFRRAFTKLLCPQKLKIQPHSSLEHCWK
Chain of Sodium-dependent serotonin transporter (Homo sapiens) (P31645 whole entry, looked up): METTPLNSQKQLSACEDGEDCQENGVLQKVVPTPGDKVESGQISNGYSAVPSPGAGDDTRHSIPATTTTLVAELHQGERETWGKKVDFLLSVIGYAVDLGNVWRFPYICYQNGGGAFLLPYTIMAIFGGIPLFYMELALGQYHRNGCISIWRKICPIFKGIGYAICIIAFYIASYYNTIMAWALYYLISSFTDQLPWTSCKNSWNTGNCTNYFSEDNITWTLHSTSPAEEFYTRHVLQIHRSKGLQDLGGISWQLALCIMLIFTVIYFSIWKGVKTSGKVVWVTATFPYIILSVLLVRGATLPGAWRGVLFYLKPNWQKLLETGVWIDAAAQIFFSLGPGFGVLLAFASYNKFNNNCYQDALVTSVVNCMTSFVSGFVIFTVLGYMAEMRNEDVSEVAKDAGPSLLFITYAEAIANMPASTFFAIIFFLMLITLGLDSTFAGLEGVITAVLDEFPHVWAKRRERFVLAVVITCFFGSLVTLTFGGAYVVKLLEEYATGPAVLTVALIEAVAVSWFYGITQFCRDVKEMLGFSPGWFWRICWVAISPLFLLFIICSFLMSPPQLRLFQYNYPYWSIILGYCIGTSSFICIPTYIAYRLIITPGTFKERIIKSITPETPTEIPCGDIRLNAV
Chain of Translocator protein (Homo sapiens) (P30536 whole entry): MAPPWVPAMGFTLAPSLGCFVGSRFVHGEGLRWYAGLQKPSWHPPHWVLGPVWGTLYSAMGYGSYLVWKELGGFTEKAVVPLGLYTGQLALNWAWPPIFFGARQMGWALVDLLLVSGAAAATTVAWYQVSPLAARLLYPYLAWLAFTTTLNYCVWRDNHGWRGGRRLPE
Chain of Muscarinic acetylcholine receptor M3 (Homo sapiens) (P20309 whole entry, looked up): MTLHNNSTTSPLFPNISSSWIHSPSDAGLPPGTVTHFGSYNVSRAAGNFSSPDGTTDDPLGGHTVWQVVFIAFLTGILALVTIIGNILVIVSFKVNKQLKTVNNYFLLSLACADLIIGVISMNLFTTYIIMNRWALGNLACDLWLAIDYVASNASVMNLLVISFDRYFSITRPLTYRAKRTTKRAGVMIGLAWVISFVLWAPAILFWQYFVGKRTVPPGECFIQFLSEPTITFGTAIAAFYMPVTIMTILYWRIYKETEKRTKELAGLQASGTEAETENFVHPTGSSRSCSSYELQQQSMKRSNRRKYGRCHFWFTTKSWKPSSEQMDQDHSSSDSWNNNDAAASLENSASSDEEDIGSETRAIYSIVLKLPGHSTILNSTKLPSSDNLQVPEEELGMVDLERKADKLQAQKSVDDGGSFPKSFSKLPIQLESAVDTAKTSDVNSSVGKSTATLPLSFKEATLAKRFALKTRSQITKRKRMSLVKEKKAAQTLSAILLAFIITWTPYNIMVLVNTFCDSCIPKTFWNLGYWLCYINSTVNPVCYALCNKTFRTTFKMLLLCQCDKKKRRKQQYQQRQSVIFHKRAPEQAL
Chain of 5-hydroxytryptamine receptor 1E (Homo sapiens) (P28566 whole entry): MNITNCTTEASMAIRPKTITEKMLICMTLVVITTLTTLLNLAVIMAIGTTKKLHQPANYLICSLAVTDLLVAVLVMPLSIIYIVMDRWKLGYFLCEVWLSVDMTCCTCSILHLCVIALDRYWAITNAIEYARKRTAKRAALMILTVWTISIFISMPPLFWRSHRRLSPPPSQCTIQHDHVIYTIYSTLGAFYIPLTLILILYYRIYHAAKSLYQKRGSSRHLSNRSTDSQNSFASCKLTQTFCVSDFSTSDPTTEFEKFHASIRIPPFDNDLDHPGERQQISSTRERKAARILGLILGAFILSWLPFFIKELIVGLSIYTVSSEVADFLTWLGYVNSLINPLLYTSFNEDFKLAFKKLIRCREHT
Chain of Histamine H1 receptor (Homo sapiens) (P35367 whole entry): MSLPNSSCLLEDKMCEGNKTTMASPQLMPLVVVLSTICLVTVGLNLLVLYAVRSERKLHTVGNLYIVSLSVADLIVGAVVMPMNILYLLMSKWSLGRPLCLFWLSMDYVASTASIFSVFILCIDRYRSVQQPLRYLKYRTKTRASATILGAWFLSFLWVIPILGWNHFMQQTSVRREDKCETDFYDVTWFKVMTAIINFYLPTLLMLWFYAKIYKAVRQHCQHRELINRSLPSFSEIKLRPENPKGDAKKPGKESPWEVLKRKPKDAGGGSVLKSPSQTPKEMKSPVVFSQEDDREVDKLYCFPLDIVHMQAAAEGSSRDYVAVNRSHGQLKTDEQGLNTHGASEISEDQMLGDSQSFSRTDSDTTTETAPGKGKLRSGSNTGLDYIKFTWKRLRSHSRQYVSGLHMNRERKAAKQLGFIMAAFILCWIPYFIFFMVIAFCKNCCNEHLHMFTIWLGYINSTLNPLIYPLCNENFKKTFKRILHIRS
Chain of D(2) dopamine receptor (Homo sapiens) (P14416 whole entry): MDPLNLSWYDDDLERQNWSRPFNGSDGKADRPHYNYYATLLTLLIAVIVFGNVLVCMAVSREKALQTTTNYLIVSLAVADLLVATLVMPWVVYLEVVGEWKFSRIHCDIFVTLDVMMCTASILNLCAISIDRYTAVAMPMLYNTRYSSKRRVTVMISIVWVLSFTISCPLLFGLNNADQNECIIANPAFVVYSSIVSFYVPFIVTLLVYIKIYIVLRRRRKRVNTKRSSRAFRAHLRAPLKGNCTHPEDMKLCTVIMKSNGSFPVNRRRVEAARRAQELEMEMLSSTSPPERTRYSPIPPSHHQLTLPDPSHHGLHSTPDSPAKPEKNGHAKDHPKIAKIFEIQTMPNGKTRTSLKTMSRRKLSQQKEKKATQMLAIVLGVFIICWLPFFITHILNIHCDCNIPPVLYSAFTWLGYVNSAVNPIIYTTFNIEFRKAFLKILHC
Chain of 5-hydroxytryptamine receptor 1B (Homo sapiens) (P28222 whole entry): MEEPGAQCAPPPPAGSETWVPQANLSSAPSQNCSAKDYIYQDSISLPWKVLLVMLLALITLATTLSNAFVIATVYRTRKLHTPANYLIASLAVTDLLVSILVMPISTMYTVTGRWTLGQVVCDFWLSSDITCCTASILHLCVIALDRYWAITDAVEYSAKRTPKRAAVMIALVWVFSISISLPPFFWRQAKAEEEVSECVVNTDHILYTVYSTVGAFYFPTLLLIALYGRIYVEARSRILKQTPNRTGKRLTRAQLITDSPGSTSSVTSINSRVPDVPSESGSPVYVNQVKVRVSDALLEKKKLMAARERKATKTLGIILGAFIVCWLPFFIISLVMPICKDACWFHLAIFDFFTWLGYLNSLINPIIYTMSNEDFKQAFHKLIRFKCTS

C[C@@H](NCCc1ccc(O)cc1)[C@@H](O)c1ccc(O)cc1 (relative stereo)
inactive: [1] 24.2% | [2] -0.11% | [3] -3.49% | [4] -1.86% | [5] 3.95% | [6] 2.73% | [7] 18.1% | [8] 0.11% | [9] 7.01% | [10] -0.38% | [11] 23.8% | [13] 0.59%
active: [12] 52.3%

Cc1ccccc1C(=O)Nc1ccc(C(=O)N2CCCC(O)c3cc(Cl)ccc32)c(C)c1 (stereo not drawn)
inactive: [2] 0.51% | [3] 4.97% | [4] 20% | [5] 35.6% | [6] 14.4% | [7] 17.3% | [8] 12.7% | [9] 8.56% | [10] 33.8% | [11] 9.21% | [12] 10.7% | [13] 6.39%
active: [1] 70.8%

Cc1csc2c(N[C@@H](C)CN3CCN(S(=O)(=O)c4ccc(Cl)c(Cl)c4)CC3)ncnc12
active: [5] 73.6%
inactive: [1] 20.4% | [2] -3.07% | [3] -7.08% | [4] 19.2% | [6] -1.11% | [7] -6% | [8] -3.91% | [9] -5.96% | [10] -8.93% | [11] 32.8% | [12] 44.9% | [13] 2.97%

CCCCCNC(=N)N/N=C/c1c[nH]c2ccc(OC)cc12
active: [4] 87.3% | [6] 96.3% | [8] 55.8% | [9] 53.9% | [10] 77.7% | [11] 67.3% | [12] 57.7%
inactive: [1] 31.1% | [2] 20.5% | [3] 8.93% | [5] 47.4% | [7] 7.96% | [13] 19%

Clc1cccc(COc2cncc(N3CCNCC3)n2)c1
inactive: [4] 42.2% | [5] 36.1% | [8] 22.3% | [9] 11.2% | [10] 33.7% | [11] 3.43% | [12] 2.44% | [13] 20.2%
active: [1] 55.6% | [2] 76% | [3] 85.1% | [6] 89% | [7] 82.1%

C[C@@H](NCCCc1cccc(C(F)(F)F)c1)c1cccc2ccccc12
inactive: [1] 12.7% | [2] 18% | [3] 7.94% | [4] 48% | [5] 13.5% | [6] 27.5% | [7] 25.8% | [8] 28.2% | [9] 38.5% | [10] 27.9% | [11] 25.8% | [13] 18.1%
active: [12] 62.7%
